Broadly, the IC50 is the concentration that gives 50% inhibition.

We go through 23 compounds from patent US9481654B2, “Compositions and methods for inhibition of the JAK pathway” (Rigel Pharmaceuticals, Inc., priority 2006, dated 2016).

Structures are written as SMILES. Counter-ions that a name gives are not always drawn.

One assay has as its system IL-4 stimulated CD23 upregulation in human Ramos B cells (JAK-1/JAK-3, Stat-6). As to the kind of experiment: Assay for Ramos B-Cell Line Stimulated with IL-4 (CD23 upregulation, FACS). The assay is classed as cell-based. The settings on record: Table III Example 3. The source says: One means of assaying for such inhibition is detection of the effect of the 2,4-pyrimidinediamine compounds on the upregulation of downstream gene products. In the Ramos/IL4 assay, B-cells are stimulated with the cytokine Interleukin-4 (IL-4) leading to the activation of the JAK/Stat pathway through phosphorylation of the JAK family kinases, JAK1 and JAK3, which in turn phosphorylate and activate the transcription factor Stat-6. […] To study the effect of inhibitors (e.g., the 2,4-substituted pyrimindinediamine compounds described herein) on the JAK1 and JAK3 kinases, human Ramos B cells are stimulated with human IL-4. 20 to 24 hours post stimulation, cells are stained for upregulation of CD23 and analyzed using flow cytometry (FACS).
B-cells stimulated with cytokine Interleukin-4 (IL-4) activate the JAK/Stat pathway through phosphorylation of the JAK family kinases, JAK-1 and JAK-3, which in turn phosphorylate and activate the transcription factor Stat-6. […] To study the effect of inhibitors on the JAK family kinases, human Ramos B cells are stimulated with human IL-4.
Cells were maintained at a density of 3.5×10^5. The day before the experiment, Ramos B-cells were diluted to 3.5×10^5 cells/mL to ensure that they were in a logarithmic growth phase.
Cells were spun down and suspended in RPMI with 5% serum. 5×10^4 cells were used per point in a 96-well tissue culture plate. Cells were pre-incubated with compound or DMSO (Sigma-Aldrich, St. Louis, Mo., Cat No. D2650) vehicle control for 1 hour in a 37° C. incubator. Cells were then stimulated with IL-4 (Peprotech Inc., Rocky Hill, N.J., Cat No. 200-04) for a final concentration of 50 units/mL for 20-24 hours. […] Detection was performed using a BD LSR I System Flow Cytometer, purchased from Becton Dickinson Biosciences of San Jose, Calif.
On to `Cc1cnc(Nc2cccc(S(=O)(=O)NC(=O)CNC(=O)OCc3ccccc3)c2)nc1Nc1cccc(CNS(=O)(=O)C2CC2)c1` [Compound I-142, N2-{3-N-[2-(benzoxycarbonylamino)-1-oxoethyl]aminosulfonyl}phenyl-N4-(3-cyclopropylsulfonylaminomethyl)phenyl-5-methyl-2,4-pyrimidinediamine], for which half-maximal inhibition (IC50) was put at 5620 nM.

The compound `Cc1cnc(Nc2cccc(S(=O)(=O)NC(=O)[C@@H](NC(=O)OCc3ccccc3)C(C)C)c2)nc1Nc1cccc(CNS(=O)(=O)C2CC2)c1` [Compound I-144, N2-[3-N-(Cbz-L-Val)aminosulfonyl]phenyl-N4-(3-cyclopropylsulfonylaminomethyl)phenyl-5-methyl-2,4-pyrimidinediamine] gave a half-maximal inhibitory concentration (IC50) of 7720 nM.

Regarding `Cc1cnc(Nc2cccc(S(=O)(=O)NC3(C(=O)O)CCCC3)c2)nc1Nc1cccc(CNS(=O)(=O)C2CC2)c1` [Compound I-145, N2-[3-N-(cycloleucine)aminosulfonyl]phenyl-N4-(3-cyclopropylsulfonylaminomethyl)phenyl-5-methyl-2,4-pyrimidinediamine hydrogen chloride salt], the IC50 is 8540 nM.

`Cc1cnc(Nc2cccc(S(=O)(=O)N[C@H](C(=O)O)C(C)C)c2)nc1Nc1cccc(CNS(=O)(=O)C2CC2)c1` [Compound I-146, N2-[3-N-(L-Val)aminosulfonyl]phenyl-N4-(3-cyclopropylsulfonylaminomethyl)phenyl-5-methyl-2,4-pyrimidinediamine hydrogen chloride salt] displayed an IC50 of 12300 nM.

Turning to `Cc1cnc(Nc2cccc(S(=O)(=O)NC(=O)C3(NC(=O)OC(C)(C)C)CCCC3)c2)nc1Nc1cccc(CNS(=O)(=O)C2CC2)c1` [Compound I-148, N2-[3-N-(Boc-cycloleucine)aminosulfonyl]phenyl-N4-(3-cyclopropylsulfonylaminomethyl)phenyl-5-methyl-2,4-pyrimidinediamine], the midpoint of inhibition, the IC50, lay at 16200 nM.

`Cc1cnc(Nc2cccc(S(=O)(=O)Nc3cccnc3)c2)nc1Nc1ccc(CNS(=O)(=O)C2CC2)cc1` [Compound I-174, N4-(4-cyclopropylsulfonylaminomethyl)phenyl-5-methyl-N2-[3-(3-pyridyl)aminosulfonyl]phenyl-2,4-pyrimidinediamine] gave an IC50 of 1120 nM.

Consider `CC(=O)NS(=O)(=O)c1cccc(Nc2ncc(C)c(Nc3cccc(CN(C(C)=O)S(=O)(=O)C4CC4)c3)n2)c1` [Compound I-193, N2-(3-acetamidosulfonyl)phenyl-N4-[3-(N-acetyl-N-cyclopropylsulfonyl)aminomethyl]phenyl-5-methyl-2,4-pyrimidinediamine], for which the IC50 amounted to 1890 nM.

`CC(=O)NS(=O)(=O)c1ccc(Nc2ncc(C)c(Nc3ccc(CN(C(C)=O)S(=O)(=O)C4CC4)cc3)n2)cc1` [Compound I-194, N2-(4-acetamidosulfonyl)phenyl-N4-[4-(N-acetyl-N-cyclopropylsulfonyl)aminomethyl]phenyl-5-methyl-2,4-pyrimidinediamine] showed an IC50 of 1650 nM.

`Cc1cnc(Nc2cccc(S(=O)(=O)NC(=O)C(C)C)c2)nc1Nc1cccc(CN(C(=O)C(C)C)S(=O)(=O)C2CC2)c1` [Compound I-198, N4-[3-(N-cyclopropylsulfonyl-N-isobutyryl)aminomethyl]phenyl-N2-(3-isobutyrylaminosulfonyl)phenyl-5-methyl-2,4-pyrimidinediamine]: the IC50 was determined as 2050 nM.

Consider `Cc1cnc(Nc2ccc(S(=O)(=O)NC(=O)C(C)C)cc2)nc1Nc1ccc(CN(C(=O)C(C)C)S(=O)(=O)C2CC2)cc1` [Compound I-199, N4-[4-(N-cyclopropylsulfonyl-N-isobutyryl)aminomethyl]phenyl-N2-(4-isobutyrylaminosulfonyl)phenyl-5-methyl-2,4-pyrimidinediamine], for which the IC50 worked out at 1270 nM.

On to `CCCC(=O)NS(=O)(=O)c1cccc(Nc2ncc(C)c(Nc3cccc(CN(C(=O)CCC)S(=O)(=O)C4CC4)c3)n2)c1` [Compound I-203, N2-(3-butyrylaminosulfonyl)phenyl-N4-[3-(N-butyryl-N-cyclopropylsulfonyl)aminomethyl]phenyl-5-methyl-2,4-pyrimidinediamine], for which the IC50 came out at 3020 nM.

For `CCCC(=O)NS(=O)(=O)c1ccc(Nc2ncc(C)c(Nc3ccc(CN(C(=O)CCC)S(=O)(=O)C4CC4)cc3)n2)cc1` [Compound I-204, N2-(4-butyrylaminosulfonyl)phenyl-N4-[4-(N-butyryl-N-cyclopropylsulfonyl)aminomethyl]phenyl-5-methyl-2,4-pyrimidinediamine], the IC50 was 1040 nM.

Regarding `CCCCCC(=O)NS(=O)(=O)c1cccc(Nc2ncc(C)c(Nc3cccc(CN(C(=O)CCCCC)S(=O)(=O)C4CC4)c3)n2)c1` [Compound I-218, N4-[3-(N-cyclopropylsulfonyl-N-hexanoyl)aminomethyl]phenyl-N2-(3-hexanoylaminosulfonyl)phenyl-5-methyl-2,4-pyrimidinediamine], the IC50 was 3800 nM.

On to `CCCCC(=O)NS(=O)(=O)c1cccc(Nc2ncc(C)c(Nc3cccc(CN(C(=O)CCCC)S(=O)(=O)C4CC4)c3)n2)c1` [Compound I-220, N4-[3-(N-cyclopropylsulfonyl-N-valeryl)aminomethyl]phenyl-5-methyl-N2-(3-valerylaminosulfonyl)phenyl-2,4-pyrimidinediamine], for which the half-inhibitory concentration (IC50) was 2020 nM.

The assay is the same for the next values; noted with them: Table III Example 3, sodium salt.
On to `Cc1cnc(Nc2cccc(S(=O)(=O)NC(=O)CNC(=O)OC(C)(C)C)c2)nc1Nc1cccc(CNS(=O)(=O)C2CC2)c1` [Compound I-141, N2-{3-N-[2-(t-butoxycarbonylamino)-1-oxoethyl]aminosulfonyl}phenyl-N4-(3-cyclopropylsulfonylaminomethyl)phenyl-5-methyl-2,4-pyrimidinediamine sodium salt], for which the IC50 was 4710 nM.

For `Cc1cnc(Nc2cccc(S(=O)(=O)NC(=O)CNC(=O)OCc3ccccc3)c2)nc1Nc1cccc(CNS(=O)(=O)C2CC2)c1` [Compound I-143, N2-{3-N-[2-(benzoxycarbonylamino)-1-oxoethyl]aminosulfonyl}phenyl-N4-(3-cyclopropylsulfonylaminomethyl)phenyl-5-methyl-2,4-pyrimidinediamine sodium salt], the half-maximal inhibitory concentration (IC50) was determined as 7290 nM.

Consider `CC(=O)NS(=O)(=O)c1cccc(Nc2ncc(C)c(Nc3cccc(CN(C(C)=O)S(=O)(=O)C4CC4)c3)n2)c1` [Compound I-196, N2-(3-acetamidosulfonyl)phenyl-N4-[3-(N-acetyl-N-cyclopropylsulfonyl)aminomethyl]phenyl-5-methyl-2,4-pyrimidinediamine sodium salt], for which the IC50 turned out to be 2050 nM.

With `CC(=O)NS(=O)(=O)c1ccc(Nc2ncc(C)c(Nc3ccc(CN(C(C)=O)S(=O)(=O)C4CC4)cc3)n2)cc1` [Compound I-197, N2-(4-acetamidosulfonyl)phenyl-N4-[4-(N-acetyl-N-cyclopropylsulfonyl)aminomethyl]phenyl-5-methyl-2,4-pyrimidinediamine sodium salt], the IC50 is 1550 nM.

For the compound `Cc1cnc(Nc2cccc(S(=O)(=O)NC(=O)C(C)C)c2)nc1Nc1cccc(CN(C(=O)C(C)C)S(=O)(=O)C2CC2)c1` [Compound I-200, N4-[3-(N-cyclopropylsulfonyl-N-isobutyryl)aminomethyl]phenyl-N2-(3-isobutyrylaminosulfonyl)phenyl-5-methyl-2,4-pyrimidinediamine sodium salt], the IC50 was found to be 2310 nM.

`Cc1cnc(Nc2ccc(S(=O)(=O)NC(=O)C(C)C)cc2)nc1Nc1ccc(CN(C(=O)C(C)C)S(=O)(=O)C2CC2)cc1` [Compound I-201, N4-[4-(N-cyclopropylsulfonyl-N-isobutyryl)aminomethyl]phenyl-N2-(4-isobutyrylaminosulfonyl)phenyl-5-methyl-2,4-pyrimidinediamine sodium salt]: the IC50 was determined as 1210 nM.

As for `CCCC(=O)NS(=O)(=O)c1cccc(Nc2ncc(C)c(Nc3cccc(CN(C(=O)CCC)S(=O)(=O)C4CC4)c3)n2)c1` [Compound I-205, N2-(3-butyrylaminosulfonyl)phenyl-N4-[3-(N-butyryl-N-cyclopropylsulfonyl)aminomethyl]phenyl-5-methyl-2,4-pyrimidinediamine sodium salt], the IC50 amounted to 3440 nM.

As to `CCCC(=O)NS(=O)(=O)c1ccc(Nc2ncc(C)c(Nc3ccc(CN(C(=O)CCC)S(=O)(=O)C4CC4)cc3)n2)cc1` [Compound I-206, N2-(4-butyrylaminosulfonyl)phenyl-N4-[4-(N-butyryl-N-cyclopropylsulfonyl)aminomethyl]phenyl-5-methyl-2,4-pyrimidinediamine sodium salt], the IC50 came out at 946 nM.

On to `CCCCCC(=O)NS(=O)(=O)c1cccc(Nc2ncc(C)c(Nc3cccc(CN(C(=O)CCCCC)S(=O)(=O)C4CC4)c3)n2)c1` [Compound I-219, N4-[3-(N-cyclopropylsulfonyl-N-hexanoyl)aminomethyl]phenyl-N2-(3-hexanoylaminosulfonyl)phenyl-5-methyl-2,4-pyrimidinediamine sodium salt], for which the IC50 was 2600 nM.
